Several values for one entry are separate records, joined by “and”; a condition that tells them apart may be missing. Equal entries are not always repeated.
Key:
[1] = system: UGT enzymes of human liver microsomes; assay: Inhibition of raloxifene glucuronidation (G1, G2) in human liver microsomes; assay type: biochemical; conditions: for % of control metabolism (SD, n = 3), raloxifene glucuronide G1 / % of control metabolism (SD, n = 3), raloxifene glucuronide G2: human liver microsomes 250 μg/ml, 15 min
Source text: Compounds were eluted using a binary solvent gradient system. […] Solvent B was methanol. […] Detection was at 280 nm.

UGT1A9 = target: T1, UGT1A9 (Homo sapiens, UniProt O60656); assay: Inhibition of raloxifene glucuronidation by recombinant UGT1A9 Supersomes; conditions: for Inhibition of raloxifene glucuronidation, UGT1A9, first line per inhibitor (G1): first line (G1, metabolite not given); for Inhibition of raloxifene glucuronidation, UGT1A9, first line per inhibitor (G1) / Inhibition of raloxifene glucuronidation, UGT1A9, second line per inhibitor (G2): raloxifene 50 μM, 250 μg/ml Supersomes, 1 mM UDPGA, 15 min; for activity at 15 min, 2 μM / activity at 15 min, 5 µM / activity at 15 min, 10 µM / activity at 15 min, 25 µM / activity at 15 min, 50 µM: human, Supersomes with recombinant human UGT1A9, pH 7.5, probe raloxifene 50 μM; for Inhibition of raloxifene glucuronidation, UGT1A9, second line per inhibitor (G2): second line (G2, metabolite not given)
T1 sequence (O60656 26-530): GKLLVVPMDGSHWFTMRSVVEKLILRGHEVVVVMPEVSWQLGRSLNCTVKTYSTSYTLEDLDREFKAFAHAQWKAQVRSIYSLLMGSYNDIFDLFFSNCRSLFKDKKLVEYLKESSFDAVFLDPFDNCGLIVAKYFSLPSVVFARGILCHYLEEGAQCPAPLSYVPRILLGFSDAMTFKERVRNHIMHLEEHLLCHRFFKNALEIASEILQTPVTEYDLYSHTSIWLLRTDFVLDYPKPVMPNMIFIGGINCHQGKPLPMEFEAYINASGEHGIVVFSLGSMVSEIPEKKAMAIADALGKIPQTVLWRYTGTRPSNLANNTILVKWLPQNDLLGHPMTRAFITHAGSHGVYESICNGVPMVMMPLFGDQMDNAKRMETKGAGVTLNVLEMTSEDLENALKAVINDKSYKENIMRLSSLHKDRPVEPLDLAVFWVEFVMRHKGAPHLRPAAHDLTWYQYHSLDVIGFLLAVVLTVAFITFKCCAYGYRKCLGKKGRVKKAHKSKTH

[2] = system: UGT enzymes of pooled human jejunum microsomes; assay: Inhibition of 2ME2 glucuronidation (MG1) in pooled human jejunum microsomes; assay type: biochemical; conditions: jejunum HJ61, 2ME2 50 μM
Source text: Compounds were eluted using a binary solvent gradient system where solvent A was dilute phosphoric acid (pH 3) and solvent B was 80:20 acetonitrile-methanol. […] Detection was at 280 nm.

[3] = target: T2, UGT enzymes of human liver microsomes (Homo sapiens, UniProt P16662); assay: Inhibition of zidovudine glucuronidation in human liver microsomes; assay type: biochemical; conditions: liver lot 062101
T2 construct: residual metabolism (percentage of control), zidovudine glucuronidation; other: liver lot 062101; residual metabolism (percentage of control), zidovudine glucuronidation; residual metabolism (percentage of control)
T2 sequence (P16662 1-529): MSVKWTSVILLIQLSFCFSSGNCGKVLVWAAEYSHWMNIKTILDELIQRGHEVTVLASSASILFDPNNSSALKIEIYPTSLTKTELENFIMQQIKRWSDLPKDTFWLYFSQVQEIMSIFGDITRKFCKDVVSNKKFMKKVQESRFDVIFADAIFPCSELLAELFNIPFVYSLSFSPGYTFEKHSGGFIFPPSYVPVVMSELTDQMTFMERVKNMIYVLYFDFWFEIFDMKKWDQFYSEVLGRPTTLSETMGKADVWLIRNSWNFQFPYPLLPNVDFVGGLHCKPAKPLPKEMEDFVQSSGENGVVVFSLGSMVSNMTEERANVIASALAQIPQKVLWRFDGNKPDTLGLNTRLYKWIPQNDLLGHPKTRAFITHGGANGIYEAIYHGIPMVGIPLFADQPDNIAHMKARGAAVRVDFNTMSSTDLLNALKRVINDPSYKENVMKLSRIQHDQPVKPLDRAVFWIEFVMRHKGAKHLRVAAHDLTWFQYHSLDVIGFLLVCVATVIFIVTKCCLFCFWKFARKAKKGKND
Description: Compounds were eluted using a binary solvent gradient system where solvent A was dilute phosphoric acid (pH 3) and solvent B was acetonitrile.
Standardized incubations utilized 500 μM zidovudine substrate, 1 mg/ml microsomal protein, 5 mM UDPGA and a 30 min incubation time. […] Int.

[4] = system: T3, UGT enzymes of human liver microsomes; assay: Inhibition of labetalol glucuronidation (LG1, LG2) in human liver microsomes; assay type: biochemical; conditions: labetalol 50 μM
T3 construct: residual metabolism (percentage of control), labetalol LG1; other: labetalol 50 μM; residual metabolism (percentage of control), labetalol LG1; residual metabolism (percentage of control), labetalol LG2; inhi

[5] = system: T4, UGT enzymes of human liver microsomes; assay: Kinetic and Ki studies of inhibitors of 7-HFC glucuronidation in human liver microsomes; assay type: biochemical; conditions: 7-HFC 20-500 μM
T4 construct: percentage of control metabolism, 7-HFC glucuronidation; percentage of control metabolism, 7-HFC glucuronidation

[6] = inhibitor 2 μM, raloxifene 50 μM
[7] = inhibitor 5 μM, raloxifene 50 μM
[8] = inhibitor 10 μM, raloxifene 50 μM
[9] = inhibitor 25 μM, raloxifene 50 μM
[10] = inhibitor 50 μM, raloxifene 50 μM
[11] = inhibitor 100 μM, raloxifene 50 μM
[12] = inhibitor 500 μM, raloxifene 50 μM
[13] = liver lot 032101, inhibitor 10 μM
[14] = liver lot 062101, inhibitor 10 μM
[15] = liver lot 083000, inhibitor 10 μM
[16] = raloxifene 50 μM, inhibitor 10 μM
[17] = raloxifene 50 μM, inhibitor 25 μM
[18] = raloxifene 50 μM, inhibitor 50 μM
[19] = raloxifene 50 μM, inhibitor 100 μM

SMILES: CC/C(=C(/CC)c1ccc(O)cc1)c1ccc(O)cc1 [Diethylstilbestrol, reference compound]
- % of control metabolism (SD, n = 3), raloxifene glucuronide G1 [1, 6]: 94 (6) %
- % of control metabolism (SD, n = 3), raloxifene glucuronide G1 [1, 7]: 83 (1) %
- % of control metabolism (SD, n = 3), raloxifene glucuronide G1 [1, 8]: 58 (3) %
- % of control metabolism (SD, n = 3), raloxifene glucuronide G1 [1, 9]: 36 (2) %
- % of control metabolism (SD, n = 3), raloxifene glucuronide G1 [1, 10]: 14 (1) %
- % of control metabolism (SD, n = 3), raloxifene glucuronide G1 [1, 11]: 8 (0) %
- % of control metabolism (SD, n = 3), raloxifene glucuronide G1 [1, 12]: 0 (0) %
- % of control metabolism (SD, n = 3), raloxifene glucuronide G2 [1, 6]: 107 (5) %
- % of control metabolism (SD, n = 3), raloxifene glucuronide G2 [1, 7]: 109 (1) %
- % of control metabolism (SD, n = 3), raloxifene glucuronide G2 [1, 8]: 111 (7) %
- % of control metabolism (SD, n = 3), raloxifene glucuronide G2 [1, 9]: 100 (5) %
- % of control metabolism (SD, n = 3), raloxifene glucuronide G2 [1, 10]: 58 (2) %
- % of control metabolism (SD, n = 3), raloxifene glucuronide G2 [1, 11]: 43 (0) %
- % of control metabolism (SD, n = 3), raloxifene glucuronide G2 [1, 12]: 0 (0) %
- % of control metabolism, raloxifene G1 [1, 13]: 70 (2) %
- % of control metabolism, raloxifene G2 [1, 13]: 96 (1) %
- % of control metabolism, raloxifene G1 [1, 14]: 89 (2) %
- % of control metabolism, raloxifene G2 [1, 14]: 83 (2) %
- % of control metabolism, raloxifene G1 [1, 15]: 58 (3) %
- % of control metabolism, raloxifene G2 [1, 15]: 111 (7) %
- % of control metabolism, raloxifene G1 [1, 16]: 58 (3) %
- % of control metabolism, raloxifene G2 [1, 16]: 111 (7) %
- % of control metabolism, raloxifene G1 [1, 17]: 36 (1) %
- % of control metabolism, raloxifene G2 [1, 17]: 100 (5) %
- % of control metabolism, raloxifene G1 [1, 18]: 14 (1) %
- % of control metabolism, raloxifene G2 [1, 18]: 58 (2) %
- % of control metabolism, raloxifene G1 [1, 19]: 8 (0) %
- % of control metabolism, raloxifene G2 [1, 19]: 43 (0) %
- Inhibition of raloxifene glucuronidation, UGT1A9, first line per inhibitor (G1) (UGT1A9; inhibitor 2 μM): 90 (0)
- Inhibition of raloxifene glucuronidation, UGT1A9, first line per inhibitor (G1) (UGT1A9; inhibitor 5 μM): 86 (0)
- Inhibition of raloxifene glucuronidation, UGT1A9, first line per inhibitor (G1) (UGT1A9; inhibitor 10 μM): 78 (3)
- Inhibition of raloxifene glucuronidation, UGT1A9, first line per inhibitor (G1) (UGT1A9; inhibitor 25 μM): 49 (5)
- Inhibition of raloxifene glucuronidation, UGT1A9, first line per inhibitor (G1) (UGT1A9; inhibitor 50 μM): 31 (2)
- activity at 15 min, 2 μM (UGT1A9; formation of glucuronide G1, % of control metabolism, raloxifene G1, UGT1A9, inhibitor 2 μM): 90%
- activity at 15 min, 5 µM (UGT1A9; formation of glucuronide G1, % of control metabolism, raloxifene G1, UGT1A9, inhibitor 5 μM): 86%
- activity at 15 min, 10 µM (UGT1A9; formation of glucuronide G1, % of control metabolism, raloxifene G1, UGT1A9, inhibitor 10 μM): 78%
- activity at 15 min, 25 µM (UGT1A9; formation of glucuronide G1, % of control metabolism, raloxifene G1, UGT1A9, inhibitor 25 μM): 49%
- activity at 15 min, 50 µM (UGT1A9; formation of glucuronide G1, % of control metabolism, raloxifene G1, UGT1A9, inhibitor 50 μM): 31%
- activity at 15 min, 2 μM (UGT1A9; formation of glucuronide G2, % of control metabolism, raloxifene G2, UGT1A9, inhibitor 2 μM): 175%
- activity at 15 min, 5 µM (UGT1A9; formation of glucuronide G2, % of control metabolism, raloxifene G2, UGT1A9, inhibitor 5 μM): 260%
- activity at 15 min, 10 µM (UGT1A9; formation of glucuronide G2, % of control metabolism, raloxifene G2, UGT1A9, inhibitor 10 μM): 290%
- activity at 15 min, 25 µM (UGT1A9; formation of glucuronide G2, % of control metabolism, raloxifene G2, UGT1A9, inhibitor 25 μM): 309%
- activity at 15 min, 50 µM (UGT1A9; formation of glucuronide G2, % of control metabolism, raloxifene G2, UGT1A9, inhibitor 50 μM): 245%
- Inhibition of raloxifene glucuronidation, UGT1A9, second line per inhibitor (G2) (UGT1A9; inhibitor 2 μM): 175 (0)
- Inhibition of raloxifene glucuronidation, UGT1A9, second line per inhibitor (G2) (UGT1A9; inhibitor 5 μM): 260 (3)
- Inhibition of raloxifene glucuronidation, UGT1A9, second line per inhibitor (G2) (UGT1A9; inhibitor 10 μM): 290 (9)
- Inhibition of raloxifene glucuronidation, UGT1A9, second line per inhibitor (G2) (UGT1A9; inhibitor 50 μM): 245 (3)
- residual metabolism (% of control), 2ME2 MG1 ([2]; inhibitor 1 μM): 93 (4) %
- residual metabolism (% of control), 2ME2 MG1 ([2]; inhibitor 10 μM): 75 (1) %
- residual metabolism (percentage of control), zidovudine glucuronidation ([3]; inhibitor 50 μM): 50 (4) % and 44 (2) %
- residual metabolism (percentage of control), zidovudine glucuronidation ([3]; inhibitor 100 μM): 34 (4) %
- residual metabolism (percentage of control), zidovudine glucuronidation ([3]; inhibitor 200 μM): 15 (1) %
- residual metabolism (percentage of control), zidovudine glucuronidation ([3]; inhibitor 500 μM): 0 (0) %
- residual metabolism (percentage of control), labetalol LG1 ([4]; inhibitor 50 μM): 23 (3) %
- residual metabolism (percentage of control), labetalol LG2 ([4]; inhibitor 50 μM): 29 (8) %
- residual metabolism (percentage of control), labetalol LG1 ([4]; inhibitor 100 μM): 1 (3) % and 5 (3) %
- residual metabolism (percentage of control), labetalol LG2 ([4]; inhibitor 100 μM): 11 (1) % and 8 (1) %
- Vmax of 7-HFC glucuronidation (fit of the experiment with this inhibitor) [5]: 64 ± 4 nmol/min/mg
- Km ([5]; read-out: Km of 7-HFC glucuronidation (fit of the experiment with this inhibitor)): 87 ± 7 µM
